{"source": "patent US5624923A", "about": "“Tricyclic diazepine vasopressin antagonists and oxytocin antagonists” (priority 1995, dated 1997)", "key": {"[1]": {"tested_on": "Vasopressin V2", "assay": "Vasopressin V2 Antagonist Activity in Conscious Hydrated Rats", "assay_type": "in vivo, rat", "settings": "AVP 0.4 μg/kg i.p.", "protocol": "Vasopressin V2 Antagonist Activity in Conscious Hydrated Rats\nConscious hydrated rats are treated with compounds under study from 0.1 to 100 mg/kg orally or vehicle. Two to four rats are used for each compound. One hour later, arginine vasopressin (AVP, antidiuretic hormore, ADH) dissolved in peanut oil is administered at 0.4 μg/kg intraperitoneally. Two rats in each test would not receive arginine vasopressin but only the vehicle (peanut oil) to serve as water-loading control. Twenty minutes later each rat is given 30 mL/kg of deionized water orally by gavage and is placed individually in a metabolic cage equipped with a funnel and a graduated glass cylinder to collect urine for four hours. Urine volume is measured and osmolality analyzed by use of a Fiske One-Ten osmometer (Fiske Assoc., Norwood, Mass., USA). Urinary sodium, potassium, and chloride are analyzed by use of ion-specific electrodes in a Beckman E3 (Electrolyte 3) Analyzer."}, "[2]": {"tested_on": "Vasopressin V1", "assay": "Vasopressin V1 Antagonist Activity in Conscious Rats (vasopressin vasopressor response)", "assay_type": "in vivo, rat", "parameters": "Average Change: unit not given here", "settings": "SHR", "protocol": "Vasopressin V1 Antagonist Activity in Conscious Rats\nConscious rats are restrained in a supine position with elastic tape. The area at the base of the tail is locally anesthetized by subcutaneous infiltration with 2% procaine (0.2 ml). Using aseptic technique the ventral caudal tail artery is isolated and a cannula made of PE 10 and 20 (heat-fused) tubing is passed into the lower abdominal aorta. The cannula is secured, heparinized (1000 i.u./cc), sealed and the wound closed with one or two stitches of Dexon 4-0. The caudal vein is also cannulated in the same manner for intravenous drug administration. The duration of the surgery is approximately 5 minutes. Additional local anesthesia (2% procaine or lidocaine) is provided as needed.\nThe animals are placed in plastic restraining cages in an upright position. The cannula is attached to a Statham P23Db pressure transducer and pulsatile blood pressure is recorded. […] The vasopressin injections are repeated 30,60,90,120,180,240 and 300 min. later. Percentage of antagonism by the compound is calculated using the pre-drug vasopressin vasopressor response as 100%."}, "[3]": {"settings": "10 mg/kg i.v., VAS 0.01 i.u./kg, 60 min"}, "[4]": {"settings": "10 mg/kg i.v., VAS 0.01 i.u./kg, 90 min"}, "[5]": {"settings": "10 mg/kg i.v., VAS 0.01 i.u./kg, 120 min"}, "[6]": {"settings": "10 mg/kg i.v., VAS 0.01 i.u./kg, 180 min"}, "[7]": {"settings": "10 mg/kg i.v., VAS 0.01 i.u./kg, 240 min"}, "[8]": {"settings": "10 mg/kg i.v., VAS 0.01 i.u./kg, 300 min"}, "[9]": {"settings": "10 mg/kg i.v., VAS 0.02 i.u./kg, 60 min"}, "[10]": {"settings": "10 mg/kg i.v., VAS 0.02 i.u./kg, 90 min"}, "[11]": {"settings": "10 mg/kg i.v., VAS 0.02 i.u./kg, 120 min"}, "[12]": {"settings": "10 mg/kg i.v., VAS 0.02 i.u./kg, 180 min"}, "[13]": {"settings": "10 mg/kg i.v., VAS 0.02 i.u./kg, 240 min"}, "[14]": {"settings": "10 mg/kg i.v., VAS 0.02 i.u./kg, 300 min"}, "[15]": {"settings": "20 mg/kg i.v., VAS 0.01 i.u./kg, 60 min"}, "[16]": {"settings": "20 mg/kg i.v., VAS 0.01 i.u./kg, 90 min"}, "[17]": {"settings": "20 mg/kg i.v., VAS 0.01 i.u./kg, 120 min"}, "[18]": {"settings": "20 mg/kg i.v., VAS 0.01 i.u./kg, 180 min"}, "[19]": {"settings": "20 mg/kg i.v., VAS 0.01 i.u./kg, 240 min"}, "[20]": {"settings": "20 mg/kg i.v., VAS 0.01 i.u./kg, 300 min"}, "[21]": {"settings": "20 mg/kg i.v., VAS 0.02 i.u./kg, 60 min"}, "[22]": {"settings": "20 mg/kg i.v., VAS 0.02 i.u./kg, 90 min"}, "[23]": {"settings": "20 mg/kg i.v., VAS 0.02 i.u./kg, 120 min"}, "[24]": {"settings": "20 mg/kg i.v., VAS 0.02 i.u./kg, 180 min"}, "[25]": {"settings": "20 mg/kg i.v., VAS 0.02 i.u./kg, 240 min"}, "[26]": {"settings": "20 mg/kg i.v., VAS 0.02 i.u./kg, 300 min"}}, "note": "Where “and” joins values, the source holds several entries; their conditions need not be identical. Identical values can stand only once.", "data": [{"smiles": "O=C(Nc1ccc(C(=O)N2Cc3cccn3-c3ccccc32)cc1)c1cc(Cl)ccc1Cl", "note": "[Example 16, N-[4-(pyrrolo[1,2-a]quinoxalin-5(4H)-ylcarbonyl)phenyl]-2,5-dichloro-benzamide]", "values": [{"measurement": "Osmolality", "setting": "[1]; 10 mg/kg orally", "result": 1242, "unit": "mOsm/kg"}, {"measurement": "Urine Volume", "setting": "[1]; 10 mg/kg orally", "result": 5.5, "unit": "ml/4 hrs"}, {"measurement": "Osmolality", "setting": "[1]; 30 mg/kg orally", "result": 1295, "unit": "mOsm/kg"}, {"measurement": "Urine Volume", "setting": "[1]; 30 mg/kg orally", "result": 8, "unit": "ml/4 hrs"}]}, {"smiles": "Cc1cc(C(=O)N2Cc3cccn3Cc3ccccc32)ccc1N", "note": "[Example 95, 10,11-Dihydro-10-(4-amino-3-methylbenzoyl)-5H-pyrrolo[2,1-c][1,4]benzodiazepine]", "values": [{"measurement": "% Inhibition", "setting": "[2]; 10 mg/kg i.v., VAS 0.01 i.u./kg, 30 min", "result": "35% and 65%"}, {"measurement": "% Inhibition", "setting": "[2]; [3]", "result": 78, "unit": "%"}, {"measurement": "Average Change", "setting": "[2]; [3]", "result": 7}, {"measurement": "% Inhibition", "setting": "[2]; [4]", "result": 58, "unit": "%"}, {"measurement": "Average Change", "setting": "[2]; [4]", "result": 13.5}, {"measurement": "% Inhibition", "setting": "[2]; [5]", "result": 58, "unit": "%"}, {"measurement": "Average Change", "setting": "[2]; [5]", "result": 13.5}, {"measurement": "% Inhibition", "setting": "[2]; [6]", "result": 52, "unit": "%"}, {"measurement": "Average Change", "setting": "[2]; [6]", "result": 15.5}, {"measurement": "% Inhibition", "setting": "[2]; [7]", "result": 43, "unit": "%"}, {"measurement": "Average Change", "setting": "[2]; [7]", "result": 18.5}, {"measurement": "% Inhibition", "setting": "[2]; [8]", "result": 52, "unit": "%"}, {"measurement": "Average Change", "setting": "[2]; [8]", "result": 15.5}, {"measurement": "% Inhibition", "setting": "[2]; [9]", "result": 78, "unit": "%"}, {"measurement": "Average Change", "setting": "[2]; [9]", "result": 12.5}, {"measurement": "% Inhibition", "setting": "[2]; [10]", "result": 72, "unit": "%"}, {"measurement": "Average Change", "setting": "[2]; [10]", "result": 16}, {"measurement": "% Inhibition", "setting": "[2]; [11]", "result": 70, "unit": "%"}, {"measurement": "Average Change", "setting": "[2]; [11]", "result": 17.5}, {"measurement": "% Inhibition", "setting": "[2]; [12]", "result": 72, "unit": "%"}, {"measurement": "Average Change", "setting": "[2]; [12]", "result": 16}, {"measurement": "% Inhibition", "setting": "[2]; [13]", "result": 31, "unit": "%"}, {"measurement": "Average Change", "setting": "[2]; [13]", "result": 39.5}, {"measurement": "% Inhibition", "setting": "[2]; [14]", "result": 27, "unit": "%"}, {"measurement": "Average Change", "setting": "[2]; [14]", "result": 42}, {"measurement": "% Inhibition", "setting": "[2]; [15]", "result": 67, "unit": "%"}, {"measurement": "Average Change", "setting": "[2]; [15]", "result": 15}, {"measurement": "% Inhibition", "setting": "[2]; [16]", "result": 70, "unit": "%"}, {"measurement": "Average Change", "setting": "[2]; [16]", "result": 13.5}, {"measurement": "% Inhibition", "setting": "[2]; [17]", "result": 47, "unit": "%"}, {"measurement": "Average Change", "setting": "[2]; [17]", "result": 24}, {"measurement": "% Inhibition", "setting": "[2]; [18]", "result": 48, "unit": "%"}, {"measurement": "Average Change", "setting": "[2]; [18]", "result": 23.5}, {"measurement": "% Inhibition", "setting": "[2]; [19]", "result": 53, "unit": "%"}, {"measurement": "Average Change", "setting": "[2]; [19]", "result": 21.5}, {"measurement": "% Inhibition", "setting": "[2]; [20]", "result": 46, "unit": "%"}, {"measurement": "Average Change", "setting": "[2]; [20]", "result": 24.5}, {"measurement": "% Inhibition", "setting": "[2]; [21]", "result": 68, "unit": "%"}, {"measurement": "Average Change", "setting": "[2]; [21]", "result": 19.5}, {"measurement": "% Inhibition", "setting": "[2]; [22]", "result": 61, "unit": "%"}, {"measurement": "Average Change", "setting": "[2]; [22]", "result": 24}, {"measurement": "% Inhibition", "setting": "[2]; [23]", "result": 53, "unit": "%"}, {"measurement": "Average Change", "setting": "[2]; [23]", "result": 28.5}, {"measurement": "% Inhibition", "setting": "[2]; [24]", "result": 44, "unit": "%"}, {"measurement": "Average Change", "setting": "[2]; [24]", "result": 34}, {"measurement": "% Inhibition", "setting": "[2]; [25]", "result": 44, "unit": "%"}, {"measurement": "Average Change", "setting": "[2]; [25]", "result": 34}, {"measurement": "% Inhibition", "setting": "[2]; [26]", "result": 39, "unit": "%"}, {"measurement": "Average Change", "setting": "[2]; [26]", "result": 37.5}]}]}
